From the supplement of paper PMC13380429

What was measured:
[1] = test system: A549-ACE2 infected with SARS-CoV-2; assay: cell count relative to DMSO; higher = less toxic; conditions: 24 h
Caco-2 [2] = assay: cell viability relative to DMSO; higher = less toxic; conditions: 72 h
Calu-3 [3] = assay: as above; conditions: 72 h
HepG2 [4] = assay: as above; conditions: 72 h
U2OS [5] = assay: as above; conditions: 72 h
Vero E6 [6] = assay: as above; conditions: 72 h
[7] = test system: A549-ACE2 infected with SARS-CoV-2; assay: SARS-CoV-2 infection rate relative to DMSO; higher = more infection; conditions: 24 h
A549-ACE2 [8] = assay: drug-induced phospholipidosis relative to tamoxifen; higher = more phospholipidosis
[9] = test system: A549-ACE2 infected with SARS-CoV-2; assay: morphology score (similarity to uninfected cells); higher = more like uninfected cells; conditions: 24 h
Caco-2 [10] = assay: relative viability EC50 (midpoint between 100% and the lowest measured viability); higher = less toxic; conditions: 72 h
Calu-3 [11] = assay: as above; conditions: 72 h
HepG2 [12] = assay: as above; conditions: 72 h
U2OS [13] = assay: as above; conditions: 72 h
Vero E6 [14] = assay: as above; conditions: 72 h
Caco-2 [15] = assay: drug sensitivity score (DSS) for viability; higher = more toxic; extreme values may be limits of the assay; conditions: 72 h
Calu-3 [16] = assay: as above; conditions: 72 h
HepG2 [17] = assay: as above; conditions: 72 h
U2OS [18] = assay: as above; conditions: 72 h
Vero E6 [19] = assay: as above; conditions: 72 h
A549-ACE2 [20] = assay: phospholipidosis EC50; higher = less potent phospholipidosis inducer

CCCCCCCCCCC(O)C1C=CC2C(=O)N(c3ccccc3)C(=O)C2N1Nc1ccc([N+](=O)[O-])cc1 (centres undefined) [A12B4C3]
Conditions	SARS-CoV-2 infection rate, [7] [%]	cell count, [1] [%]	cell viability, Caco-2 [2] [%]	cell viability, Calu-3 [3] [%]	cell viability, HepG2 [4] [%]	cell viability, U2OS [5] [%]	cell viability, Vero E6 [6] [%]	morphology score, [9]
1 nM	–	–	96.6	98.9	96.9	97.8	93.1	–
10 nM	–	–	99	104	91.2	104	99.9	–
100 nM	–	–	85.9	98.4	99.2	95.5	98.3	–
0.3 µM	92	107	–	–	–	–	–	0.31
1000 nM	–	–	90	96.2	102	99	106	–
3 µM	95	105	–	–	–	–	–	0.4
10 µM	68	110	–	–	–	–	–	0.65
10000 nM	–	–	92	95.6	97.7	89	102	–
30 µM	37	104	–	–	–	–	–	0.6

drug-induced phospholipidosis [%], A549-ACE2 [8]
Conditions	0.3 µM	0.833333 µM	3.33333 µM	6.66667 µM	10 µM	30 µM
24 h	-2.18	-1.14	-1.42	-1.07	-2.23	12.3
48 h	0.96	-1.02	1.8	1.83	2.36	7.09
72 h	1.78	0.183	1.98	2.85	2.51	10.2

Conditions	drug sensitivity score	relative viability EC50 [µM]
Caco-2 [10]	–	> 10
Caco-2 [15]	0.2	–
Calu-3 [11]	–	> 10
Calu-3 [16]	0	–
HepG2 [12]	–	> 10
HepG2 [17]	0	–
U2OS [13]	–	> 10
U2OS [18]	0	–
Vero E6 [14]	–	> 10
Vero E6 [19]	0	–

C=CC(=O)Nc1cccc(C)c1Nc1ncc2cc(-c3c(Cl)c(OC)cc(OC)c3Cl)ccc2n1 [BLU9931]
Conditions	SARS-CoV-2 infection rate, [7] [%]	cell count, [1] [%]	cell viability, Caco-2 [2] [%]	cell viability, Calu-3 [3] [%]	cell viability, HepG2 [4] [%]	cell viability, U2OS [5] [%]	cell viability, Vero E6 [6] [%]	morphology score, [9]
1 nM	–	–	103	99.4	102	101	106	–
10 nM	–	–	105	103	108	104	98.8	–
100 nM	–	–	97	97.5	96.3	97.4	99.8	–
0.3 µM	102	106	–	–	–	–	–	0.15
1000 nM	–	–	96.8	101	90.5	104	97.6	–
3 µM	96	99	–	–	–	–	–	0.3
10 µM	77	75	–	–	–	–	–	0.26
10000 nM	–	–	81	53.7	34.2	43.8	85.8	–
30 µM	65	67	–	–	–	–	–	0.43

drug-induced phospholipidosis [%], A549-ACE2 [8]
Conditions	0.3 µM	0.833333 µM	3.33333 µM	6.66667 µM	10 µM	30 µM
24 h	1.97	0.46	11	14.3	20.1	73.6
48 h	2.96	1.66	13.1	–	–	–
72 h	1.37	-1.51	4.02	–	–	–

Conditions	drug sensitivity score	relative viability EC50 [µM]
Caco-2 [10]	–	> 10
Caco-2 [15]	0.9	–
Calu-3 [16]	2.3	–
HepG2 [12]	–	2.02
HepG2 [17]	5.2	–
U2OS [13]	–	3.55
U2OS [18]	2.7	–
Vero E6 [14]	–	> 10
Vero E6 [19]	0.4	–

O=C1/C(=C/c2ccccc2)C[C@@]2(O)[C@H]3Cc4ccc(O)c5c4[C@@]2(CCN3CC2CC2)[C@H]1O5 [BNTX]
Conditions	SARS-CoV-2 infection rate, [7] [%]	cell count, [1] [%]	cell viability, Caco-2 [2] [%]	cell viability, Calu-3 [3] [%]	cell viability, HepG2 [4] [%]	cell viability, U2OS [5] [%]	cell viability, Vero E6 [6] [%]	morphology score, [9]
1 nM	–	–	100	99.5	98.3	99.5	105	–
10 nM	–	–	101	95.6	99.3	102	102	–
0.1 µM	94	101	–	–	–	–	–	0.09
100 nM	–	–	91.2	102	110	95.4	103	–
0.3 µM	93	106	–	–	–	–	–	0.34
1 µM	59	108	–	–	–	–	–	0.64
1000 nM	–	–	93.8	109	84.2	97.5	96.2	–
3 µM	11	89	–	–	–	–	–	0.68
10000 nM	–	–	30	13.1	0.5	5.7	0.4	–

drug-induced phospholipidosis [%], A549-ACE2 [8]
Conditions	0.3 µM	0.833333 µM	3.33333 µM	6.66667 µM
24 h	0.73	2.81	24.9	20.5
48 h	0.39	0.51	26	–
72 h	2.04	0.605	–	–

Conditions	drug sensitivity score	relative viability EC50 [µM]
Caco-2 [10]	–	2.43
Caco-2 [15]	4.9	–
Calu-3 [11]	–	3.66
Calu-3 [16]	4.2	–
HepG2 [12]	–	1.94
HepG2 [17]	8.1	–
U2OS [13]	–	2.97
U2OS [18]	5.6	–
Vero E6 [14]	–	2.88
Vero E6 [19]	6.1	–

CCN1CCN(Cc2ccc(C(=O)Nc3ccc(C)c(Oc4ccc5c(c4)CC(=O)N5)c3)cc2C(F)(F)F)CC1 [DDR1-IN-1]
Conditions	SARS-CoV-2 infection rate [%]	cell count [%]	cell viability [%]	morphology score	phospholipidosis EC50 [µM]
A549-ACE2 [20], 24 h	–	–	–	–	1.39
A549-ACE2 [20], 48 h	–	–	–	–	3.2
A549-ACE2 [20], 72 h	–	–	–	–	4.19
Caco-2 [2], 1 nM	–	–	102	–	–
Caco-2 [2], 10 nM	–	–	94.8	–	–
Caco-2 [2], 100 nM	–	–	101	–	–
Caco-2 [2], 1000 nM	–	–	88.1	–	–
Caco-2 [2], 10000 nM	–	–	58	–	–
Calu-3 [3], 1 nM	–	–	97.2	–	–
Calu-3 [3], 10 nM	–	–	101	–	–
Calu-3 [3], 100 nM	–	–	99.2	–	–
Calu-3 [3], 1000 nM	–	–	104	–	–
Calu-3 [3], 10000 nM	–	–	50.3	–	–
HepG2 [4], 1 nM	–	–	96.5	–	–
HepG2 [4], 10 nM	–	–	91.4	–	–
HepG2 [4], 100 nM	–	–	90.3	–	–
HepG2 [4], 1000 nM	–	–	104	–	–
HepG2 [4], 10000 nM	–	–	42.5	–	–
U2OS [5], 1 nM	–	–	100	–	–
U2OS [5], 10 nM	–	–	98.2	–	–
U2OS [5], 100 nM	–	–	99.6	–	–
U2OS [5], 1000 nM	–	–	94.5	–	–
U2OS [5], 10000 nM	–	–	79.8	–	–
Vero E6 [6], 1 nM	–	–	97.4	–	–
Vero E6 [6], 10 nM	–	–	99.5	–	–
Vero E6 [6], 100 nM	–	–	100	–	–
Vero E6 [6], 1000 nM	–	–	100	–	–
Vero E6 [6], 10000 nM	–	–	72.9	–	–
[1], 0.1 µM	–	102	–	–	–
[1], 0.3 µM	–	104	–	–	–
[1], 1 µM	–	114	–	–	–
[1], 3 µM	–	121	–	–	–
[7], 0.1 µM	98	–	–	–	–
[7], 0.3 µM	96	–	–	–	–
[7], 1 µM	61	–	–	–	–
[7], 3 µM	26	–	–	–	–
[9], 0.1 µM	–	–	–	-0.13	–
[9], 0.3 µM	–	–	–	-0.1	–
[9], 1 µM	–	–	–	0.26	–
[9], 3 µM	–	–	–	0.78	–

drug-induced phospholipidosis [%], A549-ACE2 [8]
Conditions	0.3 µM	0.833333 µM	3.33333 µM	6.66667 µM	10 µM	30 µM
24 h	10.6	33.4	86.8	106	121	89.6
48 h	6.52	20.9	67.3	89.5	109	118
72 h	6.39	17.7	60.8	89.3	107	126

Conditions	drug sensitivity score	relative viability EC50 [µM]
Caco-2 [15]	3.9	–
Calu-3 [16]	2.3	–
HepG2 [12]	–	3.52
HepG2 [17]	2.8	–
U2OS [13]	–	> 10
U2OS [18]	1.3	–
Vero E6 [19]	1.1	–
